Assay results taken from patent US12447216B2, “Biogenic hemin-based MRI contrast agents, and compositions and methods thereof” (University of Massachusetts, priority 2017, dated 2025).

Key:
[1] = only in a rare case; cited from earlier work
[2] = Body weight monitoring after tail vein injection; type: in vivo; conditions: mice, versus PBS control, 2 weeks
From the text: (§1) The biocompatibility of hematin for injection was comprehensively investigated, for example, via blood routine examination, histological analysis, and body weight monitoring.

[3] = parameters: species or system mice; conditions: mouse, in vivo, iv
From the text: as §1
Another group of mice injected with PBS were used as control.
Meanwhile, blood samples were collected at different intervals after treatment with HeOH-PEG. […] Another group of mice injected of PBS were used as control.

[4] = Histological analysis (hematoxylin and eosin) of major organs; type: in vivo; conditions: mice; 14 days after administration
Description: as §1
Subsequently, hematoxylin and eosin examinations were performed on major organs (e.g., heart, liver, spleen, lung, and kidney) collected from healthy mice and those treated with HeOH-PEG. […] No significant differences were found between the cellular morphology of the studied organs in the HeOH-PEG treated group and the control group (FIG. 10).

[5] = In vivo MR imaging / MR angiography after tail vein injection; conditions: nude mice, 2 mg/kg/day, FIG. 2
Description: (§2) FIG. 1 is a graph showing r1 values and 1/T1 values according to Fe concentrations of metalloporphyrin-based MRI-CAs after dispersion in water. […] To further evaluate its MRI performance in vivo, hematin at a dose of 2 mg/kg/day, which is within the recommended range for clinical use, was administered into the tail veins of nude mice.
To study the potential application of HeOH-PEG for in vivo MRI, a series of MR imaging were performed at different time points after HeOH-PEG was injected via tail vein into health node mice (500 μL, 0.48 mmol […] per kg mice). FIG. 11 is the 3D image of MR angiography acquired from the mouse after intravenous injection with HeOH-PEG.
The MR signal enhancement with excellent contrast in the vasculature lasted until 60 min post injection.

[6] = T1 relaxivity (r1) measurement and T1-weighted in vitro MR imaging; type: physicochemical
Description: Hematin was studied for its properties in MR imaging.
as §2
The composition of the prepared He-PEG was confirmed by NMR spectroscopy. […] The ^1H NMR spectrum of the He-PEG nanoparticles confirmed the successful conjugation of He with PEG2000. The magnetic property of the produced He-PEG particles was determined by measuring the longitudinal relaxivity values, which referred to the slope of the 1/T1 (R1) plot versus Fe ion concentration.
FIGS. 5 and 6 show r1 values and 1/T1 values according to Fe concentrations of He—OH after dispersion in water.

SMILES: C=CC1=C(C)c2cc3[n-]c(cc4[n-]c(cc5nc(cc1n2)C(C)=C5C=C)c(C)c4CCC(=O)O)c(CCC(=O)O)c3C.O.[Fe+2] [hematin]
- excessive hematin dose reported to induce reversible renal shutdown [1]: 12.2 mg/kg
- body weight change [2]: no significant changes compared to the control group
- blood routine examination parameters versus normal range [3]: within the normal range
- histological changes in heart, liver, spleen, lung and kidney [4]: no obvious histological changes
- T1 signal in vivo after intravenous administration [5]: increase in the T1 signal was clearly observed in the heart and large vessel
- T1 relaxivity value ([6]; 3.0 T MR scanner, dispersion in water, FIG. 1): 0.424 mM⁻¹ s⁻¹
- r1 value (longitudinal relaxivity, slope of 1/T1 versus Fe ion concentration) ([6]; dispersion in water): 0.424 s^−1 mM^−1 Fe
- T1-weighted in vitro MR imaging signal ([6]; various Fe concentrations): concentration-dependent brightening effect
